# Measurements reported in patent publication US10785975B2, “Water and feed antimicrobial preservative” (priority 2009, dated 2020).
# Like-named read-outs stand apart in the source and are kept apart here.
# Assays:
# Salmonella typhimurium [1] = assay: Study 5: propionic, acetic and pelargonic acids alone or in combination in water; format: cell-based
# Experimental: Propionic, acetic and pelargonic acids by themselves or in combination as listed were added to sterile deionized water to make at a 0.05%, 0.04%, 0.03%, 0.02% and 0.01% total acid solutions. The pHs of the deionized water solutions were recorded and any problems with solubility noted. 100 ul of a nutrient broth culture of Salmonella typhimurium was added to each dilution tube. After addition, tubes were vortexed and allowed to stand. At 24 hours after addition of the inoculum, 100 ul of the solution was plated on Standard Plate agar (triplicate plates). Plates were incubated at 37° C. for 24 hours prior to enumeration.
# Salmonella typhimurium [2] = assay: Example 3: buffered organic acid mixtures with pelargonic acid in water; format: cell-based; details: for MIC at 4 HR / MIC at 24 HR: Minimum Inhibitory Concentration of Pelargonic when mixed with acetic or propionic acid (buffered to pH 3), by linear regression
# Experimental: Procedure: Propionic and acetic acids were buffered with ammonium hydroxide to a pH of 3 and combined with pelargonic in the ratios above. Acid content of the buffered solutions was determined by weight to weight ratio calculation (weight of acid/total weight of buffered solution) and adjusted to provide an equal acid value for each treatment. […] The pHs of the deionized water solutions were recorded and any problems with solubility noted.
# 100 ul of a nutrient broth culture of Salmonella typhimurium was added to each dilution tube. After addition, tubes were vortexed and allowed to stand. At 4 and 24 hours after addition of the inoculum, 100 ul of the solution was plated on Standard Plate agar (triplicate plates). Plates were incubated at 37° C. for 24 hours prior to enumeration. The minimum effective dose of each acid was determined by linear regression.
# [3] = general description in background; cited from earlier work
# M. gypseum = details: acids tested independently, cited from earlier work
# [4] = Experimental: Pelargonic acid is a naturally occurring fatty acid found in almost all species of animals and plants. Because it contains nine carbon atoms, it is also called nonanoic acid has the chemical formula CH3(CH2)7COOH. It is found at low levels in many common foods and is readily broken down in the environment. It is an oily colorless fluid that solidifies at lower temperatures.
# In this experiment, the effect of free fatty acids was evaluated. […] The pH of the deionized water solutions was recorded and any problems with solubility noted
# (§1) Myristic acid (5%, 10% and 20%) diluted in propionic acid was tested to determine its effectiveness against salmonella in feed.
# C. irritans = details: cited from earlier work
# Salmonella typhimurium [5] = assay: Example 2: effect of carbon chain length of individual organic acids on antimicrobial activity in water; format: cell-based; parameters: MIC at 4 HR / MIC at 24 FIR: unit not given here; details: for MIC at 4 HR / MIC at 24 FIR: Minimum Inhibitory Concentration of Organic Acids against Salmonella, by linear regression; for MIC at 24 FIR: 24 hours; for killing at […] / killing at 0.05 % / killing at 0.075 % / killing at 0.1 %: Salmonella enterica, TYPHIMURIUM
# Experimental: 100 ul of a nutrient broth culture of Salmonella typhimurium was added to each dilution tube. After addition, tubes were vortexed and allowed to stand. At 4 and 24 hours after addition of the inoculum, 100 ul of the solution was plated on agar (triplicate plates). Plates were incubated at 37° C. for 24 hours prior to enumeration. The minimum effective dose of each acid was be determined by linear regression: […]
# Salmonella typhimurium [6] = assay: Study 8: lauric acid in propionic acid against salmonella in poultry feed; format: cell-based; details: Lauric/Propionic acids, 24 hours after treatment
# Experimental: Lauric acid (5%, 10%, 20%) diluted with propionic acid was tested to determine its effectiveness against salmonella in feed.
# […] Twenty four hours after treatment, 10 gr of feed was added to 90 ml Butterfield buffer, mixed and then 100 ul of the solution was plated on Standard Plate agar (triplicate plates). Plates were incubated at 37° C. for 24 hours prior to enumeration.
# Salmonella typhimurium [7] = assay: Study 7: myristic acid in propionic acid against salmonella in poultry feed; format: cell-based; details: Myristic/Propionic acids, 24 hours after treatment
# Experimental: as §1
# (§2) Commercial poultry feed amended with Salmonella typhimurium was treated with 1 or 3 kg/MT of the solutions listed below. Twenty four hours after treatment, 10 gr of feed was added to 90 ml Butterfield buffer, mixed and then 100 ul of the solution was plated on Standard Plate agar (triplicate plates). Plates were incubated at 37° C. for 24 hours prior to enumeration.
# Salmonella typhimurium [8] = assay: Study 6: capric acid in acetic or propionic acid against salmonella in poultry feed; format: cell-based; details: Capric/Propionic acids, 24 hours after treatment
# Experimental: as §2
# [9] = Test Product 0.01 % total acid solution in water
# [10] = Test Product 0.02 % total acid solution in water
# [11] = Test Product 0.04 % total acid solution in water
# [12] = Test Product 0.05 % total acid solution in water
# [13] = Product Conc. 0.025 (% total acid solution in water)
# [14] = Product Conc. 0.05 (% total acid solution in water)
# [15] = Product Conc. 0.075 (% total acid solution in water)
# [16] = Product Conc. 0.1 (% total acid solution in water)
compound,measurement,setting,value
CCCCCCCCC(=O)O [Pelargonic acid],Salmonella 24 hr afterTreatment (cfu/g),Salmonella typhimurium [1]; [9],1400 cfu/g
same,Salmonella 24 hr afterTreatment (cfu/g),Salmonella typhimurium [1]; [10],1300 cfu/g
same,Salmonella 24 hr afterTreatment (cfu/g),Salmonella typhimurium [1]; [11],1500 cfu/g
same,Salmonella 24 hr afterTreatment (cfu/g),Salmonella typhimurium [1]; [12],850 cfu/g
same,MIC at 4 HR,Salmonella typhimurium [2],<0.025
same,MIC at 24 HR,Salmonella typhimurium [2],<0.025
same,Salmonella at time Interval 4 hr % reduction,Salmonella typhimurium [2]; [13],100%
same,Salmonella at time Interval 4 hr cfu/g,Salmonella typhimurium [2]; [13],0 cfu/g
same,Salmonella at time Interval 24 hr % reduction,Salmonella typhimurium [2]; [13],100%
same,Salmonella at time Interval 24 hr cfu/g,Salmonella typhimurium [2]; [13],0 cfu/g
same,Salmonella at time Interval 4 hr % reduction,Salmonella typhimurium [2]; [14],100%
same,Salmonella at time Interval 4 hr cfu/g,Salmonella typhimurium [2]; [14],0 cfu/g
same,Salmonella at time Interval 24 hr % reduction,Salmonella typhimurium [2]; [14],100%
same,Salmonella at time Interval 24 hr cfu/g,Salmonella typhimurium [2]; [14],0 cfu/g
same,Salmonella at time Interval 4 hr % reduction,Salmonella typhimurium [2]; [15],100%
same,Salmonella at time Interval 4 hr cfu/g,Salmonella typhimurium [2]; [15],0 cfu/g
same,Salmonella at time Interval 24 hr % reduction,Salmonella typhimurium [2]; [15],100%
same,Salmonella at time Interval 24 hr cfu/g,Salmonella typhimurium [2]; [15],0 cfu/g
same,Salmonella at time Interval 4 hr % reduction,Salmonella typhimurium [2]; [16],100%
same,Salmonella at time Interval 4 hr cfu/g,Salmonella typhimurium [2]; [16],0 cfu/g
same,Salmonella at time Interval 24 hr % reduction,Salmonella typhimurium [2]; [16],100%
same,Salmonella at time Interval 24 hr cfu/g,Salmonella typhimurium [2]; [16],0 cfu/g
same,solubility in water,[3],almost insoluble in water
same,minimum inhibitory concentration (MTC) to prevent growth of M. gypseum,M. gypseum; in liquid media,0.05 mg/mL
same,minimum inhibitory concentration (MTC) to prevent growth of M. gypseum,M. gypseum; on solid media,0.04 mg/mL
same,solubility in water,[4],not soluble in water
same,controlling the growth of the parasite C. irritans,C. irritans,effective in controlling the growth
same,MIC at 4 HR,Salmonella typhimurium [5]; 4 hr,0.063
same,MIC at 24 FIR,Salmonella typhimurium [5],<0.025
CCC(=O)O [Propionic acid],% Reduction,Salmonella typhimurium [6]; 1 kg/MT,92.3%
same,cfu/g,Salmonella typhimurium [6]; 1 kg/MT,2567 cfu/g
same,% Reduction,Salmonella typhimurium [6]; 3 kg/MT,100.0%
same,cfu/g,Salmonella typhimurium [6]; 3 kg/MT,0 cfu/g
same,Salmonella 24 hr afterTreatment (cfu/g),Salmonella typhimurium [1]; [9],1200 cfu/g
same,Salmonella 24 hr afterTreatment (cfu/g),Salmonella typhimurium [1]; [10],870 cfu/g
same,Salmonella 24 hr afterTreatment (cfu/g),Salmonella typhimurium [1]; Test Product 0.03 % total acid solution in water,810 cfu/g
same,Salmonella 24 hr afterTreatment (cfu/g),Salmonella typhimurium [1]; [11],910 cfu/g
same,Salmonella 24 hr afterTreatment (cfu/g),Salmonella typhimurium [1]; [12],560 cfu/g
same,MIC at 4 HR,Salmonella typhimurium [2],0.179
same,MIC at 24 HR,Salmonella typhimurium [2],0.064
same,% Reduction,Salmonella typhimurium [7]; 1 kg/MT,90.08%
same,cfu/g,Salmonella typhimurium [7]; 1 kg/MT,3967 cfu/g
same,% Reduction,Salmonella typhimurium [7]; 3 kg/MT,99.42%
same,cfu/g,Salmonella typhimurium [7]; 3 kg/MT,233 cfu/g
same,% Reduction,Salmonella typhimurium [8]; 1 kg/ton,0%
same,cfu/g,Salmonella typhimurium [8]; 1 kg/ton,4633 cfu/g
same,% Reduction,Salmonella typhimurium [8]; 3 kg/ton,0%
same,cfu/g,Salmonella typhimurium [8]; 3 kg/ton,5633 cfu/g
same,MIC at 4 HR,Salmonella typhimurium [5]; 4 hr,0166
same,MIC at 24 FIR,Salmonella typhimurium [5],0.066
same,Salmonella at time Interval 4 hr cfu/g,"Salmonella typhimurium [5]; Product Conc. 0.025 (% acid solution in water), 4 hr",1167 cfu/g
same,Salmonella at time Interval 24 hr cfu/g,"Salmonella typhimurium [5]; Product Conc. 0.025 (% acid solution in water), 24 hr",170 cfu/g
same,Salmonella at time Interval 4 hr cfu/g,"Salmonella typhimurium [5]; Product Conc. 0.05 (% acid solution in water), 4 hr",900 cfu/g
same,Salmonella at time Interval 24 hr cfu/g,"Salmonella typhimurium [5]; Product Conc. 0.05 (% acid solution in water), 24 hr",40 cfu/g
same,Salmonella at time Interval 4 hr cfu/g,"Salmonella typhimurium [5]; Product Conc. 0.075 (% acid solution in water), 4 hr",877 cfu/g
same,Salmonella at time Interval 24 hr cfu/g,"Salmonella typhimurium [5]; Product Conc. 0.075 (% acid solution in water), 24 hr",25 cfu/g
same,Salmonella at time Interval 4 hr cfu/g,"Salmonella typhimurium [5]; Product Conc. 0.1 (% acid solution in water), 4 hr",773 cfu/g
same,Salmonella at time Interval 24 hr cfu/g,"Salmonella typhimurium [5]; Product Conc. 0.1 (% acid solution in water), 24 hr",30 cfu/g
same,killing at […],"Salmonella typhimurium [5]; Product Conc. 0.025 (% acid solution in water), 4 hr, read-out: Salmonella at time Interval 4 hr % reduction",27%
same,killing at […],"Salmonella typhimurium [5]; Product Conc. 0.025 (% acid solution in water), 24 hr, read-out: Salmonella at time Interval 24 hr % reduction",90%
same,killing at 0.05 %,"Salmonella typhimurium [5]; Product Conc. 0.05 (% acid solution in water), 4 hr, read-out: Salmonella at time Interval 4 hr % reduction",44%
same,killing at 0.05 %,"Salmonella typhimurium [5]; Product Conc. 0.05 (% acid solution in water), 24 hr, read-out: Salmonella at time Interval 24 hr % reduction",98%
same,killing at 0.075 %,"Salmonella typhimurium [5]; Product Conc. 0.075 (% acid solution in water), 4 hr, read-out: Salmonella at time Interval 4 hr % reduction",45%
same,killing at 0.075 %,"Salmonella typhimurium [5]; Product Conc. 0.075 (% acid solution in water), 24 hr, read-out: Salmonella at time Interval 24 hr % reduction",99%
same,killing at 0.1 %,"Salmonella typhimurium [5]; Product Conc. 0.1 (% acid solution in water), 4 hr, read-out: Salmonella at time Interval 4 hr % reduction",52%
same,killing at 0.1 %,"Salmonella typhimurium [5]; Product Conc. 0.1 (% acid solution in water), 24 hr, read-out: Salmonella at time Interval 24 hr % reduction",98%
"CCCCCCCCCCCC(=O)O [lauric, Lauric acid]",solubility in water,[4],not soluble in water
